# Assay results published in ChEMBL document CHEMBL1201862, “PubChem BioAssay data set” (2004).
#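 Step 1: Grow cells in 96-well plates. Step 2: Expose to compound for 48 hours at 5 concentrations. Step 3: Interpolate endpoints linearly; if unreached, use highest concentration. At the GI50, growth is halved.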 The source made the active and inactive calls. Rule as the data show it: active = GI50 up to about 1.1 µM and inactive = higher.
# Experiments:
# Experiment in all cases: inhibition of tumour cell growth, NCI panel, 48 h
# SR = tested on: SR
# NCI-H460 = tested on: NCI-H460
# NCI-H226 = tested on: NCI-H226
# TK-10 = tested on: TK-10
# DU-145 = tested on: DU-145
# U-251 = tested on: U-251
# MCF7 = tested on: MCF7
# CCRF-CEM = tested on: CCRF-CEM
# SK-MEL-5 = tested on: SK-MEL-5
# SF-268 = tested on: SF-268
# NCI-H522 = tested on: NCI-H522
# NCI/ADR-RES = tested on: NCI/ADR-RES
# HCC 2998 = tested on: HCC 2998
# UO-31 = tested on: UO-31
# A498 = tested on: A498
# OVCAR-3 = tested on: OVCAR-3
# UACC-257 = tested on: UACC-257
# T47D = tested on: T47D
# HT-29 = tested on: HT-29
# Hs-578T = tested on: Hs-578T
# MOLT-4 = tested on: MOLT-4
# K562 = tested on: K562
# ACHN = tested on: ACHN
# RPMI-8226 = tested on: RPMI-8226
# MDA-N = tested on: MDA-N
# 786-0 = tested on: 786-0
# SF-539 = tested on: SF-539
# OVCAR-8 = tested on: OVCAR-8
# OVCAR-4 = tested on: OVCAR-4
# HCT-116 = tested on: HCT-116
# Malme-3M = tested on: Malme-3M
# SK-MEL-2 = tested on: SK-MEL-2
# UACC-62 = tested on: UACC-62
# SNB-75 = tested on: SNB-75
# BT-549 = tested on: BT-549
# RXF 393 = tested on: RXF 393
# HL-60 = tested on: HL-60
# M14 = tested on: M14
# COLO 205 = tested on: COLO 205
# OVCAR-5 = tested on: OVCAR-5
# SK-OV-3 = tested on: SK-OV-3
# MDA-MB-435 = tested on: MDA-MB-435
# A549 = tested on: A549
# HOP-62 = tested on: HOP-62
# SN12C = tested on: SN12C
# IGROV-1 = tested on: IGROV-1
# PC-3 = tested on: PC-3
# SF-295 = tested on: SF-295
# NCI-H23 = tested on: NCI-H23
# EKVX = tested on: EKVX
# SK-MEL-28 = tested on: SK-MEL-28
# KM12 = tested on: KM12
# MDA-MB-231 = tested on: MDA-MB-231
# CAKI-1 = tested on: CAKI-1
# HOP-92 = tested on: HOP-92
# HCT-15 = tested on: HCT-15
# SW-620 = tested on: SW-620
# SNB-19 = tested on: SNB-19
# LOX IMVI = tested on: LOX IMVI
smiles,measurement,setting,value
O=C1C=CC(=O)N1c1ccc2c(c1)Cc1cc(NC(=O)C(F)(F)F)ccc1-2,GI50,SR,2.74 µM (inactive)
same,GI50,NCI-H460,> 100 µM (inactive)
same,GI50,NCI-H226,4.84 µM (inactive)
same,GI50,TK-10,3 µM (inactive)
same,GI50,DU-145,16 µM (inactive)
same,GI50,U-251,18.2 µM (inactive)
same,GI50,MCF7,15.1 µM (inactive)
same,GI50,CCRF-CEM,3.96 µM (inactive)
same,GI50,SK-MEL-5,47 µM (inactive)
same,GI50,SF-268,19.1 µM (inactive)
same,GI50,NCI-H522,5.09 µM (inactive)
same,GI50,NCI/ADR-RES,27.7 µM (inactive)
same,GI50,HCC 2998,> 45.2 µM (inactive)
same,GI50,UO-31,13.6 µM (inactive)
same,GI50,A498,20 µM (inactive)
same,GI50,OVCAR-3,15.7 µM (inactive)
same,GI50,UACC-257,18 µM (inactive)
same,GI50,T47D,17.9 µM (inactive)
same,GI50,HT-29,10.2 µM (inactive)
same,GI50,Hs-578T,21.1 µM (inactive)
same,GI50,MOLT-4,4.25 µM (inactive)
same,GI50,K562,9.25 µM (inactive)
same,GI50,ACHN,4.43 µM (inactive)
same,GI50,RPMI-8226,2.9 µM (inactive)
same,GI50,MDA-N,17.1 µM (inactive)
same,GI50,786-0,5.58 µM (inactive)
same,GI50,SF-539,18 µM (inactive)
same,GI50,OVCAR-8,17.7 µM (inactive)
same,GI50,OVCAR-4,17.3 µM (inactive)
same,GI50,HCT-116,7.36 µM (inactive)
same,GI50,Malme-3M,19.8 µM (inactive)
same,GI50,SK-MEL-2,18.4 µM (inactive)
same,GI50,UACC-62,16.8 µM (inactive)
same,GI50,SNB-75,16.1 µM (inactive)
same,GI50,BT-549,16.6 µM (inactive)
same,GI50,RXF 393,5.66 µM (inactive)
same,GI50,HL-60,12.2 µM (inactive)
same,GI50,M14,20.9 µM (inactive)
same,GI50,COLO 205,13.1 µM (inactive)
same,GI50,OVCAR-5,16.7 µM (inactive)
same,GI50,SK-OV-3,> 100 µM (inactive)
same,GI50,MDA-MB-435,17.4 µM (inactive)
same,GI50,A549,17.9 µM (inactive)
same,GI50,HOP-62,20.1 µM (inactive)
same,GI50,SN12C,17.1 µM (inactive)
same,GI50,IGROV-1,16.6 µM (inactive)
same,GI50,PC-3,17.1 µM (inactive)
same,GI50,SF-295,> 100 µM (inactive)
same,GI50,NCI-H23,16.4 µM (inactive)
same,GI50,EKVX,14.9 µM (inactive)
same,GI50,SK-MEL-28,18.1 µM (inactive)
same,GI50,KM12,18.5 µM (inactive)
same,GI50,MDA-MB-231,16.4 µM (inactive)
same,GI50,CAKI-1,16 µM (inactive)
same,GI50,HOP-92,16.8 µM (inactive)
same,GI50,HCT-15,10.6 µM
same,GI50,SW-620,9.84 µM (inactive)
same,GI50,SNB-19,> 47 µM (inactive)
same,GI50,LOX IMVI,18 µM (inactive)
CC(C)c1cc2c(cc1S(=O)(=O)O)[C@@]1(C)CCC[C@@](C)(C(=O)O)C1CC2 (stereo partly drawn),GI50,SR,> 100 µM (inactive)
same,GI50,NCI-H460,> 100 µM (inactive)
same,GI50,NCI-H226,> 100 µM (inactive)
same,GI50,TK-10,> 100 µM (inactive)
same,GI50,DU-145,> 100 µM (inactive)
same,GI50,U-251,> 100 µM (inactive)
same,GI50,MCF7,> 100 µM (inactive)
same,GI50,CCRF-CEM,> 100 µM (inactive)
same,GI50,SK-MEL-5,> 100 µM (inactive)
same,GI50,SF-268,> 100 µM (inactive)
same,GI50,NCI-H522,> 100 µM (inactive)
same,GI50,NCI/ADR-RES,> 100 µM (inactive)
same,GI50,HCC 2998,> 100 µM (inactive)
same,GI50,UO-31,> 100 µM (inactive)
same,GI50,A498,> 100 µM (inactive)
same,GI50,OVCAR-3,> 100 µM (inactive)
same,GI50,UACC-257,> 100 µM (inactive)
same,GI50,T47D,> 100 µM (inactive)
same,GI50,HT-29,> 100 µM (inactive)
same,GI50,Hs-578T,> 100 µM (inactive)
same,GI50,MOLT-4,> 100 µM (inactive)
same,GI50,K562,> 100 µM (inactive)
same,GI50,ACHN,> 100 µM (inactive)
same,GI50,RPMI-8226,> 100 µM (inactive)
same,GI50,MDA-N,> 100 µM (inactive)
same,GI50,786-0,> 100 µM (inactive)
same,GI50,SF-539,> 100 µM (inactive)
same,GI50,OVCAR-8,> 100 µM (inactive)
same,GI50,OVCAR-4,> 100 µM (inactive)
same,GI50,HCT-116,> 100 µM (inactive)
same,GI50,Malme-3M,> 100 µM (inactive)
same,GI50,SK-MEL-2,> 100 µM (inactive)
same,GI50,UACC-62,> 100 µM (inactive)
same,GI50,SNB-75,> 100 µM (inactive)
same,GI50,BT-549,> 100 µM (inactive)
same,GI50,RXF 393,> 100 µM (inactive)
same,GI50,HL-60,> 100 µM (inactive)
same,GI50,M14,> 100 µM (inactive)
same,GI50,COLO 205,> 100 µM (inactive)
same,GI50,OVCAR-5,> 100 µM (inactive)
same,GI50,SK-OV-3,> 100 µM (inactive)
same,GI50,MDA-MB-435,> 100 µM (inactive)
same,GI50,A549,> 100 µM (inactive)
same,GI50,HOP-62,> 100 µM (inactive)
same,GI50,SN12C,> 100 µM (inactive)
same,GI50,IGROV-1,> 100 µM (inactive)
same,GI50,PC-3,> 100 µM (inactive)
same,GI50,SF-295,> 100 µM (inactive)
same,GI50,NCI-H23,> 100 µM (inactive)
same,GI50,EKVX,> 100 µM (inactive)
same,GI50,SK-MEL-28,> 100 µM (inactive)
same,GI50,KM12,> 100 µM (inactive)
same,GI50,MDA-MB-231,> 100 µM (inactive)
same,GI50,CAKI-1,> 100 µM (inactive)
same,GI50,HOP-92,> 100 µM (inactive)
same,GI50,HCT-15,> 100 µM
same,GI50,SW-620,> 100 µM (inactive)
same,GI50,SNB-19,> 100 µM (inactive)
same,GI50,LOX IMVI,> 100 µM (inactive)
